According to patent US20180155757A1, “IDENTIFICATION OF BACTERIA THAT ARE RESISTANT TO CARBAPENEMS BY MEMBRANE IMPERVIOUSNESS” (BIOMÉRIEUX, priority 2015, published 2018):

Experiments:
Assay in all cases: Etest MIC of indicator carbapenems on MH II agar without/with PMBN
Format in all cases: cell-based
[1] = system: C. freundii 1204047
Method: (§1) The determinations of antibiotic MIC were carried out on solid culture media with the Etest® method. To do this, Etest® strips (bioMérieux, France) were used: • Etest® Imipenem IM 32, and • Etest® Ertapenem ETP 32, and also solid culture media, differing from one another by virtue of their non-inhibitory concentrations of PMBN.
(§2) These solid culture media are prepared in Petri dishes (0=145 mm; V=50 ml) on a base of MH II Agar (Becton Dickinson®, United States), more or less supplemented with PMBN. The PMBN concentrations range from 0 up to concentrations equivalent to one fifth of the MIC of PMBN (⅕ MICPMBN).
(§3) Using a swab and the Retro C80™ rota-plater (bioMérieux, France), the culture media were inoculated with the bacteria, originating from an inoculum of 0.5 McFarland, prepared in 0.85% NaCl solution from colonies subcultured the day before on MH II agar.
(§4) The various Etest® strips are then deposited on the surface of the culture media. After 16 to 20 hours of incubation at 35° C., the MICS were read.
(§5) To do this, imipenem and ertapenem were used as indicator carbapenems. Non-inhibitory concentrations of PMBN, equivalent to concentrations of one tenth ( 1/10), one eighth (⅛) and one fifth (⅕) of the MIC of PMBN, were applied.

[2] = system: E. cloacae 1008079 (IMP-1 producer)
Method: as §1, §2, §3, §4, §5

[3] = system: K. pneumoniae 0404024 (VIM-1 producer)
Method: as §1, §2, §3, §4, §5

[4] = system: K. pneumoniae 1012335 (OXA-48 producer)
Method: as §1, §2, §3, §4, §5

[5] = system: K. pneumoniae 1104053 (OXA-48 producer)
Method: as §1, §2, §3, §4, §5

[6] = system: K. pneumoniae 1108001 (KPC-2 producer)
Method: as §1, §2, §3, §4, §5

[7] = system: K. pneumoniae 1108002 (KPC-3 producer)
Method: as §1, §2, §3, §4, §5

Row | SMILES | MIC ([1]; [PMBN] 0) [µg/mL] | MIC ([1]; [PMBN] MIC/5) [µg/mL] | MIC ([1]; [PMBN] MIC/8) [µg/mL] | MIC ([1]; [PMBN] MIC/10) [µg/mL] | MIC ([2]; [PMBN] 0) [µg/mL] | MIC ([2]; [PMBN] MIC/5) [µg/mL] | MIC ([2]; [PMBN] MIC/8) [µg/mL] | MIC ([2]; [PMBN] MIC/10) [µg/mL] | MIC ([3]; [PMBN] 0) [µg/mL] | MIC ([3]; [PMBN] MIC/5) [µg/mL] | MIC ([3]; [PMBN] MIC/8) [µg/mL] | MIC ([3]; [PMBN] MIC/10) [µg/mL] | MIC ([4]; [PMBN] 0) [µg/mL] | MIC ([4]; [PMBN] MIC/5) [µg/mL] | MIC ([4]; [PMBN] MIC/8) [µg/mL] | MIC ([4]; [PMBN] MIC/10) [µg/mL] | MIC ([5]; [PMBN] 0) [µg/mL] | MIC ([5]; [PMBN] MIC/5) [µg/mL] | MIC ([5]; [PMBN] MIC/8) [µg/mL] | MIC ([5]; [PMBN] MIC/10) [µg/mL] | also measured
1 | C[C@@H](O)[C@H]1C(=O)N2C(C(=O)O)=C(S[C@@H]3CN[C@H](C(=O)Nc4cccc(C(=O)O)c4)C3)[C@H](C)[C@H]12 [ETP, ertapenem] | 32 | 4 | 8 | 8 | 4 | 8 | 8 | 8 | 128 | 16 | 32 | 32 | 2 | 4 | 4 | 4 | 4 | 4 | 4 | 4 | MIC ([6]; [PMBN] 0): 16 µg/mL; MIC ([6]; [PMBN] MIC/5): 8 µg/mL; MIC ([6]; [PMBN] MIC/8): 8 µg/mL; MIC ([6]; [PMBN] MIC/10): 16 µg/mL; MIC ([7]; [PMBN] 0): 16 µg/mL; MIC ([7]; [PMBN] MIC/5): 64 µg/mL; MIC ([7]; [PMBN] MIC/8): 64 µg/mL; MIC ([7]; [PMBN] MIC/10): 64 µg/mL
2 | C[C@@H](O)[C@H]1C(=O)N2C(C(=O)O)=C(SCCN=CN)C[C@H]12 [IM, imipenem] | 1 | 1 | 1 | 2 | 2 | 2 | 2 | 4 | 64 | 64 | 64 | 64 | 2 | 2 | 2 | 2 | 2 | 2 | 2 | 2 | MIC ([6]; [PMBN] 0): 8 µg/mL; MIC ([6]; [PMBN] MIC/5): 4 µg/mL; MIC ([6]; [PMBN] MIC/8): 8 µg/mL; MIC ([6]; [PMBN] MIC/10): 8 µg/mL; MIC ([7]; [PMBN] 0): 16 µg/mL; MIC ([7]; [PMBN] MIC/5): 16 µg/mL; MIC ([7]; [PMBN] MIC/8): 16 µg/mL; MIC ([7]; [PMBN] MIC/10): 16 µg/mL
